Source: patent US20150218212A1, “FLUORINATED EPOXYKETONE-BASED TETRAPEPTIDE COMPOUNDS AND USES THEREOF AS PROTEASOME INHIBITORS” (FLUORINOV PHARMA INC., priority 2012, published 2015)
Like-named read-outs stand apart in the source and are kept apart here.

Legend:
Type in all cases: in vivo, NOD/SCID mice
[1] = target: T1, proteasome Chymotrypsin-like (CT-L) activity (Mus musculus, UniProt O09061+O55234); assay: Pharmacodynamic proteasome activity in murine red blood cells, CT-L; conditions: iv, mice, 2 mg/kg i.v.
T1 construct: RBCs were lysed with assay lysis buffer and incubated on ice for 30 minutes; from tissue; host or cells: red blood cells of NOD/SCID mice
Protocol: (§1) Cells were harvested by centrifugation at 1,200 rpm at room temperature. Cell pellets were washed with PBS (phosphate buffered saline) and lysed with assay lysis buffer (50 mM HEPES (N-2-hydroxyethylpiperazine-N′-2-ethanesulfonic acid), pH 7.5; 150 mM NaCl; 1% Triton X-100; 2 mM ATP). Cell lysates were incubated on ice for 30 minutes, mixed by vortex every 5 minutes, and then centrifuged at 12,000 g for 10 minutes. The supernatant was transferred to a 96-well plate. For each assay, 10 μg of total protein were incubated for 1 hour at 37° C. with increasing concentrations (1 nM to 10 μM) of test compound diluted in assay buffer (50 mM tris-HCl (tris(hydroxymethyl)aminomethane-HCl), pH 7.5; 150 mM NaCl). DMSO alone was used as a control in every assay plate. After incubation, a specific fluorogenic proteasome substrate was added to each assay reaction at a final concentration of 40 μM in a total volume of 100 μL. N-Succinyl-Leu-Leu-Val-Tyr-7-amino-4-methylcoumarin (Suc-Leu-Leu-Val-Tyr-AMC) was used for measuring chymotrypsin-like (CT-L) activity, t-butoxycarbonyl-Leu-Arg-Arg-7-amino-4-methylcoumarin (Boc-Leu-Arg-Arg-AMC) for trypsin-like (T-L) activity, and benzyloxycarbonyl-L-leucyl-L-leucyl-L-glutamyl-7-amino-4-methylcoumarin (Z-Leu-Leu-Glu-AMC) for caspase-like (C-L) activity. The excitation wavelength was set at 360 nm and the fluorescence emission wavelength of AMC was detected at 460 nm. The fluorescence of free AMC released during the enzymatic reaction was measured with a SpectraMax M5 fluorescent spectrophotometric plate reader (Molecular Devices, Sunnyvale, Calif.). AMC release rate was measured at 37° C. in a kinetic mode, recording every 5 minutes for 30 minutes. Experiments were performed in triplicate and repeated at least twice.
(§2) All mouse experiments were performed in accordance with approval from the Ontario Cancer Institute institutional animal review board. Five- to six-week-old male non-obese diabetic/severe combined immunodeficient (NOD/SCID) mice were grouped randomly (n=3 mice per group). Mice were administered vehicle (5% DMSO, 20% Cremophor) or compounds of Formula I at different doses either intravenously or by oral gavage, and venous blood samples (20-50 μL) were collected from each mouse over 24 hours. Blood samples were mixed with heparin (APP Pharmaceuticals; Schaumburg, Ill.) in 0.5 mL tubes in accordance with the manufacturer's instructions. After centrifugal separation at 3,000 g for 10 minutes, red blood cells (RBCs) in the bottom layer were transferred into a new tube and stored at −70° C. until use. RBCs were lysed with assay lysis buffer and incubated on ice for 30 minutes, mixing by vortex every 5 minutes, and then centrifuged at 12,000 g for 10 minutes. The supernatant was transferred to a 96-well plate and proteasome activity was measured as described above for tumor cell lysates.
(§3) Proteasome subunit activity (Chymotrypsin-like, Trypsin-like, Caspase-like, CT-L, T-L, C-L, respectively) were monitored over the course of 24 hrs following […] administration of representative compounds of Formula I. NOD/SCID mice were treated with compounds of Formula I (2 mg/kg by iv administration) or vehicle control and carfilzomib for up to 24 hours, as described above. Table 9 summarizes the data on pharmacodynamic activity of representative compounds of Formula I following a dose of 2 mg/kg intravenous (i.v) administration to mice. Data are presented as mean residual activity (SEM) relative to vehicle treated controls.

[2] = target: T2, proteasome Trypsin-like (T-L) activity (Mus musculus, UniProt P70195+Q9R1P1); assay: Pharmacodynamic proteasome activity in murine red blood cells, T-L; conditions: iv, mice, 2 mg/kg i.v., time 0, read-out: Trypsin-like (T-L) mean residual activity relative to vehicle treated controls
T2 construct: RBCs were lysed with assay lysis buffer and incubated on ice for 30 minutes; from tissue; host or cells: red blood cells of NOD/SCID mice
Protocol: as §1, §2, §3

[3] = target: T3, proteasome Caspase-like (C-L) activity (Mus musculus, UniProt P70195+Q60692); assay: Pharmacodynamic proteasome activity in murine red blood cells, C-L; conditions: iv, mice, 2 mg/kg i.v., time 0, read-out: Caspase-like (C-L) mean residual activity relative to vehicle treated controls
T3 construct: RBCs were lysed with assay lysis buffer and incubated on ice for 30 minutes; from tissue; host or cells: red blood cells of NOD/SCID mice
Protocol: as §1, §2, §3

remaining activity at 2 mg/kg ([1]; 30 min, read-out: Chymotrypsin-like (CT-L) mean residual activity relative to vehicle treated controls): 48%
remaining activity at 2 mg/kg ([1]; 24 hrs, read-out: Chymotrypsin-like (CT-L) mean residual activity relative to vehicle treated controls): 46%
remaining activity at 2 mg/kg ([1]; time 0, read-out: Chymotrypsin-like (CT-L) mean residual activity relative to vehicle treated controls): 100%
remaining activity at 2 mg/kg [2]: 100%
remaining activity at 2 mg/kg [3]: 100%
Compound: CC(C)C[C@H](NC(=O)[C@H](CCc1ccccc1)NC(=O)CN1CCOCC1)C(=O)N[C@@H](Cc1ccccc1)C(=O)N[C@@H](CC(C)C)C(=O)[C@@]1(C)CO1 [Carfilzomib, carfilzomib, reference compound]
